From patent US10058526B2, “Compositions containing pheromones for treating behavioural or medical problems linked to the stress of non-human mammals” (CEVA SANTE ANIMALE, priority 2014, dated 2018)
Structures can show the parent of a compound that is named as a salt.

Experiment: Diffusion of solvents in a 5.6 W electric diffuser (Example 1)
Type: physicochemical
Details: 48 ml solvent, average per day over 30 days
Procedure: 48 ml of solvent to be tested are placed in a 5.6 W electric diffuser. The amount of solvent diffused is measured for 30 days following plugging in of the diffuser, and the average diffusion of product per day is calculated and summarized in Table 1 below: […]

Compound	Diffusion of product
CC(C)OC(=O)CCCCCCCCC(=O)OC(C)C [Diisopropyl sebacate]	1 g/day
CO[C@H]1CO[C@H]2[C@@H]1OC[C@H]2OC [Isosorbide dimethyl ether]	2 g/day
Glycofurol	0.5 g/day
CC(C)CCCCCCOC(=O)CCCCCC(C)C [Isononyl isononanoate]	2 g/day

More lines, now with the values ahead:

Diffusion of product	Compound
1 g/day	CCCCCCCCCCCCCC(=O)OC(C)C [Isopropyl myristate]
4 g/day	CC1COC(=O)O1 (stereo not shown) [Propylene carbonate]
1 g/day	CCOC(=O)CC(O)(CC(=O)OCC)C(=O)OCC [Triethyl citrate]
